Experiments:
HEK293F cells [1] = assay: EGFP expression from 6xATF6 promoter constructs with and without XBP1 intron after 2 mM DTT; assay type: cell-based, human
Description: For this study two constructs were prepared: • 1) 6×ATF6 elements (having the sequence TGACGTGCT) upstream of the CMV-minimal promoter (CMV-MP) and EGFP; this construct was named SYNP-ATF6-01 (see below, SEQ ID NO: 30). • 2) 6×ATF6 elements upstream of the CMV-MP and EGFP with XBP1 intron insertion; this construct was named SYNP-ATF6-02 (see below, SEQ ID NO: 31).
HEK293F cells were used in this study. All growth conditions, transfections and analyses were carried out as described in Example 1.
24 well transfections were set-up as described above. Each condition was performed in duplicate/triplicate. 24 hrs after transfection the cells were treated with either 2 mM DTT, to induce the UPR, or by mock treatment with an equivalent volume of water. 1, 3, 5 and 24 hrs after treatment of the cells GFP fluorescence was measured as previously described.
The ratio of GFP fluorescence to the control plasmid was calculated before and after induction.

HEK293F cells [2] = assay: EGFP expression from ATF6 constructs induced by wtAAV production; assay type: cell-based, human
Description: In this experiment transfections were carried out in 24-well plates as previously described. The ATF6 plasmids (SYNP-ATF6-01 and SYNP-ATF6-02 constructs in the pMA-RQ vector) were transfected into HEK293F cells (using MAX reagent, as above) and after 24 hrs GFP was measured. After GFP measurement the same cells were transfected with the plasmids for wtAAV production pGRG25AAV2 (provided by Adrien Savvy) and pHelper plasmid from Takara/Clonetech in a 1:1 ratio. EGFP fluorescence was then measured after 1, 3, 5 and 24 hrs (FIGS. 7 and 8—not all data is shown). Both plasmids are required for wtAAV production, with the pGRG25AAV2 providing the wtAAV2 genome and the pHelper plasmid providing the E2, VA and E4 helper functions required for virus replication.
This confirmed successful AAV expression. Zs green is a variant of eGFP and as such GFP measurement was carried out on these cells as previously described.

SYNP-ATF6-02: 6×ATF6 elements upstream of the CMV-MP and EGFP with XBP1 intron insertion (SEQ ID NO: 31)
GFP expression after induction, ratio to CMV-IE (HEK293F cells [1]; 2 mM DTT, 3 independent experiments): 4 times the level of CMV-IE | background level of GFP fluorescence (HEK293F cells [1]; before DTT, raw data): practically zero | background level of EGFP before wtAAV production (HEK293F cells [2]): zero

Reference: US11492618B2, “Expression control using a regulatable intron” (ASKLEPIOS BIOPHARMACEUTICAL, INC., priority 2017, dated 2022)
